Assay results as given in patent US7875282B2 (Cordis Corporation, priority 2004, dated 2011).

Tests used:
[1] = test system: human smooth muscle cells; experiment: PDGF-stimulated proliferation of human smooth muscle cells, cell count; assay type: cell-based; settings: from IC50 values
Protocol: To assess the ability of cladribine to prevent cell proliferation, human smooth muscle or endothelial cells (Clonetics, Walkersville, Md.) were seeded at a density of 2000 cells/cm^2 (approximately 3600 cells/well) into each well of 12-well plates and cultured with 1.5 ml of growth medium containing five percent fetal calf serum (FCS). After twenty-four hours, the growth medium was changed and fresh medium containing 10 ng/ml platelet-derived growth factor AB (PDGF AB; LIFE Technologies), as well as various concentrations of cladribine (0.001-10,000 nM) were added with triplicate wells. Medium was replaced with fresh cladribine-containing medium after three days. On day six, cells were detached by trypsinization to yield a cell suspension, lightly centrifuged to pellet and then counted manually using a Neubauer hemocytometer system. Cell viability was assessed by trypan blue exclusion.

[2] = test system: human coronary artery smooth muscle cells; experiment: Anti-proliferative activity in non-synchronized cultured cells stimulated with two percent fetal bovine serum; assay type: cell-based; settings: for effect of addition on the anti-proliferative activity of rapamycin: non-synchronized cells, added to rapamycin
Description: The multiple curves represent various concentrations of mycophenolic acid ranging from zero to one thousand nanomolar concentrations.
FIG. 58 illustrates, in graphical format, the anti-proliferative activity of cladribine in non-synchronized cultured human coronary artery smooth muscle cells stimulated with two percent fetal bovine serum.
The multiple curves represent various concentrations of cladribine ranging from zero to nine hundred nanomolar concentrations.

[3] = In vivo release kinetics from rapamycin, cladribine and polymer coating, porcine pharmacokinetics studies; set-up: species or system Yorkshire pigs; settings: Bx Velocity stents, BMA topcoat
Description: (§1) The basecoat is applied to Bx Velocity® stents and implanted into Yorkshire pigs.
as §1

[4] = test system: human coronary artery smooth muscle cells; experiment: Anti-proliferative activity in synchronized cultured cells stimulated with two percent fetal bovine serum; assay type: cell-based; settings: for effect of addition on the anti-proliferative activity of rapamycin: added to rapamycin
Description: The multiple curves represent various concentrations of topotecan ranging from zero to three hundred nanomolar concentrations.
The multiple curves represent various concentrations of etoposide ranging from zero to eight hundred nanomolar concentrations.
The multiple curves represent various concentrations of Panzem® ranging from zero to 100 micromolar concentrations.

[5] = In vivo release kinetics from rapamycin, mycophenolic acid and polymer coating, porcine pharmacokinetics studies; settings: one hundred eighty micro grams each drug
[6] = test system: human coronary artery smooth muscle cell; experiment: In vitro cell culture study of coronary artery smooth muscle cell proliferation; assay type: cell-based
Description: FIG. 51 is a graph of the inhibition of coronary artery smooth muscle cells by trichostatin A in a cell culture study.

tumor cell lines = settings: Woo et al., J. Med Chem 2002; cited from earlier work

With `Nc1nc(Cl)nc2c1ncn2[C@H]1C[C@H](O)[C@@H](CO)O1` [cladribine, 2-chlorodeoxyadenosine] the “potency as inhibitor of smooth muscle cells relative to endothelial cells” value [1] was “approximately twice”, the “effect of addition on the anti-proliferative activity of rapamycin” value (from here on “effect of addition”) [2] was “increases the percent inhibition of rapamycin alone” and the “inhibition of human coronary artery smooth muscle cell proliferation” value ([2]; non-synchronized, two percent fetal bovine serum) was “completely inhibits”. For the same compound, the “elution from EVA/BMA basecoat compared with rapamycin” value [3] was “elutes more rapidly than rapamycin”.

With `COc1cc2c(cc1O)CC[C@@H]1[C@@H]2CC[C@]2(C)[C@@H](O)CC[C@@H]12` [Panzem®, 2-methoxyestradiol] the “effect of addition” value [4] was “increases the percent of inhibition of rapamycin alone” and the anti-proliferative activity ([4]; agent alone) was “extremely effective inhibitor of human coronary artery smooth muscle cell proliferation”.

With `COc1c(C)c2c(c(O)c1C/C=C(\C)CCC(=O)O)C(=O)OC2` [mycophenolic acid] the “effect of addition” value [2] was “potentiates the anti-proliferative activity of rapamycin” and the “elution from EVA/BMA basecoat compared with rapamycin” value [5] was “elutes more completely over a shorter duration than the rapamycin”.

With `CC[C@@]1(O)C(=O)OCc2c1cc1n(c2=O)Cc2cc3c(CN(C)C)c(O)ccc3nc2-1` [topotecan] the “effect of addition” value [4] was “increases the percent inhibition of rapamycin alone”.

In the case of `CC(/C=C/C(=O)NO)=C\[C@@H](C)C(=O)c1ccc(N(C)C)cc1` [trichostatin A], the “inhibition of human coronary artery smooth muscle cell proliferation” value [6] is listed as “completely inhibit”, the IC50 ([6]; read-out: anti-proliferative IC50) is listed as about 6 nM and the “anti-proliferative IC50's” value (tumor cell lines) is listed as “low nM range”.

For `COc1cc([C@@H]2c3cc4c(cc3[C@@H](O[C@@H]3O[C@@H]5CO[C@@H](C)O[C@H]5[C@H](O)[C@H]3O)[C@H]3COC(=O)[C@H]23)OCO4)cc(OC)c1O` [etoposide], the “effect of addition” value [4] was “increases the percent inhibition of rapamycin alone”.
